Where only a bound is given, the exact number is not on record here.

These results are taken from patent publication US20110166123A1, “NOVEL COMPOSITIONS AND METHODS OF USE” (priority 2008, published 2011).

The test concerns human immunodeficiency virus type 1 (HIV-1). As to the kind of experiment: microbe, parasite or virus in culture. Type of test: cell-based. The settings on record: Human immunodeficiency virus 1, HeLa, 48 h, HIV-1 luciferase reporter, HeLa cells, 48 hours after infection. In general terms: A reporter such as luciferase makes a cellular process visible.
With `COc1nc2c(cc1Cc1cccc(Cl)c1F)c(=O)c(C(=O)O)cn2C1CCOCC1` [Example 1N], the EC50 (usually the concentration needed to bring the measured effect to its halfway point) is greater than 100 nM.
As for `COc1nc2c(cc1-c1ccc(Cl)c(F)c1)c(=O)c(C(=O)O)cn2[C@H](CO)C(C)C` [Example 17B], the EC50 was greater than 100 nM.
As for `O=C(O)c1cn([C@H](CO)C2CCCCC2)c2cnc(Cc3cccc(Cl)c3F)cc2c1=O` [Example 5M], the EC50 was 10 to 100 nM.
Turning to `COc1nc2c(cc1NCc1c(F)ccc(F)c1F)c(=O)c(C(=O)O)cn2[C@H](CO)C(C)C` [Example 20GG, (S)-1-(1-hydroxy-3-methylbutan-2-yl)-7-methoxy-4-oxo-6-(2,3,6-trifluorobenzylamino)-1,4-dihydro-1,8-naphthyridine-3-carboxylic acid], the EC50 was in the range of 10 to 100 nM.
For `CCCn1cc(C(=O)OC(=O)c2ccccc2)c(=O)c2c(NC(C)=O)nc(SC)nc21` [Example 7D] the value was greater than 100 nM.
In the case of `CCCC(CO)n1cc(C(=O)O)c(=O)c2cc(Cc3cccc(Cl)c3F)c(OC)nc21` (stereo not drawn) [Example 1J] it was 10 to 100 nM.
In the case of `COc1nc2c(cc1CNc1cccc3c1CCCC3)c(=O)c(C(=O)O)cn2[C@H](CO)C(C)C` [Example 12E] it was greater than 100 nM.
`COc1nc2c(cc1NCc1cc(F)cc(F)c1F)c(=O)c(C(=O)O)cn2[C@H](CO)C(C)C` [Example 20FF, (S)-1-(1-hydroxy-3-methylbutan-2-yl)-7-methoxy-4-oxo-6-(2,3,5-trifluorobenzylamino)-1,4-dihydro-1,8-naphthyridine-3-carboxylic acid] yielded an EC50 greater than 100 nM.
For `COc1nc2c(cc1NCc1ccc(F)c(Cl)c1)c(=O)c(C(=O)O)cn2[C@H](CO)C(C)C` [Example 20F, (S)-6-(3-chloro-4-fluorobenzylamino)-1-(1-hydroxy-3-methylbutan-2-yl)-7-methoxy-4-oxo-1,4-dihydro-1,8-naphthyridine-3-carboxylic acid] the value was greater than 100 nM; for `COc1nc2c(cc1Cc1c(F)cc(F)cc1F)c(=O)c(C(=O)O)cn2[C@H](CO)C(C)C` [Example 1D], greater than 100 nM.
With `CCOc1nc2c(cc1Cc1cccc(Cl)c1F)c(=O)c(C(=O)O)cn2[C@H](CO)C(C)(C)C` [Example 2C], the EC50 was less than 10 nM.
On to `COc1nc2c(cc1Cc1ccc(F)cc1F)c(=O)c(C(=O)O)cn2[C@H](CO)C(C)C` [Example 1E], for which the EC50 lay in the range of 10 to 100 nM.
`CC(C)(C)[C@@H](CO)n1cc(C(=O)O)c(=O)c2cc(Cc3cccc(Cl)c3F)c(OCc3cccnc3)nc21` [Example 2N] yielded an EC50 of less than 10 nM.
For `COc1nc2c(cc1NCCc1cccc(Cl)c1)c(=O)c(C(=O)O)cn2[C@H](CO)C(C)C` [Example 20G, (S)-6-(3-chlorophenethylamino)-1-(1-hydroxy-3-methylbutan-2-yl)-7-methoxy-4-oxo-1,4-dihydro-1,8-naphthyridine-3-carboxylic acid] the value was greater than 100 nM; for `COc1nc2c(cc1Nc1ccc(F)cc1)c(=O)c(C(=O)O)cn2[C@H](CO)C(C)C` [Example 20QQ, (S)-6-(4-fluorophenylamino)-1-(1-hydroxy-3-methylbutan-2-yl)-7-methoxy-4-oxo-1,4-dihydro-1,8-naphthyridine-3-carboxylic acid], greater than 100 nM; for `CC(C)(C)[C@@H](CO)n1cc(C(=O)O)c(=O)c2cc(Cc3cccc(Cl)c3F)c(NCCCN3CCCC3=O)nc21` [Example 2EE], less than 10 nM.
For `COc1cc2c(cc1CNc1ccc(F)cc1)c(=O)c(C(=O)O)cn2[C@H](CO)C(C)C` [Example 13A, (S)-6-((4-fluorophenylamino)methyl)-1-(1-hydroxy-3-methylbutan-2-yl)-7-methoxy-4-oxo-1,4-dihydroquinoline-3-carboxylic acid] the value was greater than 100 nM; for `COc1nc2c(cc1NCc1ccccc1F)c(=O)c(C(=O)O)cn2[C@H](CO)C(C)C` [Example 20D, (S)-6-(2-fluorobenzylamino)-1-(1-hydroxy-3-methylbutan-2-yl)-7-methoxy-4-oxo-1,4-dihydro-1,8-naphthyridine-3-carboxylic acid], 10 to 100 nM.
